Tested on: pseudotyped SARS-CoV-2 (D614G Spike)
Format: cell-based

O=C(OCc1cc(=O)oc2cc(O)c(O)cc12)c1nn(-c2ccccc2)c(=O)c2ccccc12 [compound 958]
pseudotyped SARS-CoV-2 infection (D614G Spike): prevent pseudotyped SARS-CoV-2 infection

— patent US20250295657A1, “Methods and Compositions for Treatment of Inflammation and Inflammatory Conditions” (University of Pittsburgh - Of the Commonwealth System of …, priority 2022, published 2025)
